Measurements: the NIST ThermoML archive (doi:10.1021/je400101s)

Experiment: mn = molality of the nth substance listed, in mol/kg
Details: 101 kPa, Liquid; for electrical conductivity: METLER TOLEDO SevenEasyTM conductivity meter

CCCC[P+](CC)(CCCC)CCCC.[Br-] [ethyltributylphosphonium bromide] + O
Details | electrical conductivity, 298.15 K [S/m] | electrical conductivity, 303.15 K [S/m] | electrical conductivity, 308.15 K [S/m] | mass density, 298.15 K [kg/m3] | mass density, 303.15 K [kg/m3] | mass density, 308.15 K [kg/m3] | viscosity, 298.15 K [mPa·s] | viscosity, 303.15 K [mPa·s] | viscosity, 308.15 K [mPa·s]
m1 = 0.5002 | 1.77 | 1.83 | 1.89 | 1010.54 | 1008.66 | 1006.6 | 1.404 | 1.225 | 1.084
m1 = 0.7497 | 2.04 | 2.14 | 2.21 | 1016.07 | 1013.98 | 1011.69 | 1.801 | 1.589 | 1.426
m1 = 1 | 2.21 | 2.33 | 2.41 | 1021.34 | 1018.99 | 1016.49 | 2.006 | 1.742 | 1.524
m1 = 1.995 | 2.35 | 2.49 | 2.63 | 1038.07 | 1034.94 | 1031.74 | 3.177 | 2.633 | 2.19
m1 = 3.001 | 2.2 | 2.36 | 2.55 | 1048.55 | 1045.08 | 1041.59 | 4.806 | 3.978 | 3.331
m1 = 4 | 2.03 | 2.21 | 2.42 | 1055.26 | 1051.66 | 1048.01 | 6.391 | 5.291 | 4.447
m1 = 4.997 | 1.87 | 2.05 | 2.25 | 1060.4 | 1056.71 | 1053 | 7.976 | 6.54 | 5.441
m1 = 5.998 | 1.72 | 1.9 | 2.11 | 1064.15 | 1060.43 | 1056.66 | 9.681 | 7.852 | 6.459
m1 = 6.501 | 1.65 | 1.85 | 2.06 | 1065.49 | 1062.17 | 1058.22 | 10.62 | 8.579 | 7.005
m1 = 6.984 | 1.58 | 1.78 | 1.98 | 1066.91 | 1063.18 | 1059.41 | 11.58 | 9.33 | 7.561
m1 = 8.001 | – | – | – | 1069.18 | 1065.46 | 1061.69 | – | – | –
m1 = 8.994 | – | – | – | 1070.97 | 1067.25 | 1063.49 | – | – | –
